# Test results taken from US9585386B2, “Microbicidal composition” (Dow Global Technologies LLC, priority 2013, dated 2017).
# Several values for one entry are separate records, joined by “and”; a condition that tells them apart may be missing. Equal values may be shown once. Read-outs that look alike come from different tables or passages of the source.
# How the values were obtained:
# Format in all cases: cell-based
# any organism tested = assay: Synergy of other biocides paired with surfactants; conditions: for ratio of surfactant to biocide where synergy was observed: not commercially relevant (less biocide relative to surfactant)
# Protocol: (§1) Surfactants and biocides were evaluated for synergy by determining the synergy index (S.I.) of the combination. Synergy index was calculated based on minimum inhibitory concentrations (MIC) of two antimicrobial compounds (A and B) alone and in combinations. The tests organisms were Gram negative bacteria (Pseudomonas aeruginosa ATCC #15442), Gram positive bacteria (Staphylococcus aureus ATCC #6538), yeast (Candida albicans ATCC #10203) and mold (Aspergillus niger ATCC#16404). Contact time for the bacteria was 24 and 48 hours, yeast was 48 and 72 hrs, and 3 and 7 days for mold. The test was carried out in 96 well microtiter plates. • Surf. A R^1O(CH2CH(CH3)O)5(CH2CH2O)9H, where R^1 is 2-ethylhexyl • Surf. D R^2O(CH2CH(CH3)O)3(CH2CH2O)5H • Surf. E R^2O(CH2CH(CH3)O)3(CH2CH2O)7H In Surf. D and Surf. E, R^2 is a mixture of C8-C14 linear alkyl groups (70% C8-C10 linear alkyl and 30% C12-C14 linear alkyl) Inoculums Used
# (§2) SI is calculated as follows: Ca/CA+Cb/CB=Synergy Index (“SI”)
# (§3) Wherein: • CA=concentration of compound A in ppm, acting alone, which produced an end point (MIC of Compound A). • Ca=concentration of compound A in ppm, in the mixture, which produced an end point. • CB=concentration of compound B in ppm, acting alone, which produced an end point (MIC of Compound B). • Cb=concentration of compound B in ppm, in the mixture, which produced an end point. When the sum of Ca/CA and Cb/CB is greater than one, antagonism is indicated.
# A • Sodium Benzoate, TRIS NITRO Surf. E • DMDMH Surf. […] At these ratios, the biocide levels in a formulated product would be too low to be practical: Surf. A • DIDAC, IPBC Surf. E • CMIT/MIT, IPBC, OIT, TTPC, WSCP Surf.
# [1] = tested on: Staphylococcus aureus ATCC #6538; assay: MIC / synergy index test in 96 well microtiter plates, Gram positive bacteria
# Protocol: as §1
# (§4) The pH of the Triptic soy broth was 7.3 and the Potato dextrose broth was 5.1.
# as §2, §3
# [2] = tested on: Candida albicans ATCC #10203; assay: MIC / synergy index test in 96 well microtiter plates, yeast; conditions: for CB (MIC of compound B alone): MIT alone; for CB (MIC of compound B alone) / Cb (concentration of compound B in the mixture which produced an end point): PDB, 48 hrs
# Protocol: as §1, §4, §2, §3
# [3] = tested on: Aspergillus niger ATCC#16404; assay: MIC / synergy index test in 96 well microtiter plates, mold; conditions: PDB, 3rd day; for MIC: Aspergillus niger, ATCC16404, read-out: CB (MIC of compound B alone), MIT alone, inoculum 1.156E+06 CFU/ml; for Cb (concentration of compound B in the mixture which produced an end point): 1.156E+06 CFU/ml
# Protocol: as §1, §4, §2, §3
# [4] = tested on: Pseudomonas aeruginosa ATCC #15442; assay: MIC / synergy index test in 96 well microtiter plates, Gram negative bacteria; conditions: for Cb (concentration of compound B in the mixture which produced an end point): 1/10 TSB, 24 hrs; for MIC: Pseudomonas aeruginosa, ATCC15442, 24 h
# Protocol: as §1, §4, §2, §3
structure (smiles),measurement,setting,value
CC1(C)C(=O)N(CO)C(=O)N1CO [DMDMH],Synergy against any organism tested,any organism tested; biocide paired with Surf. D,no synergy
same,Synergy against any organism tested,any organism tested; biocide paired with Surf. E,no synergy
CCCCCCCCCC[N+](C)(C)CCCCCCCCCC.[Cl-] [DIDAC],ratio of surfactant to biocide where synergy was observed,any organism tested; biocide paired with Surf. A,1:0.2 or greater
same,ratio of surfactant to biocide where synergy was observed,any organism tested; biocide paired with Surf. D,1:0.2 or greater
CCC12COCN1COC2 [CS-1246],Synergy against any organism tested,any organism tested; biocide paired with Surf. D,no synergy
CCCCCCCCCCCCCC[P+](CCCC)(CCCC)CCCC.[Cl-] [TTPC],ratio of surfactant to biocide where synergy was observed,any organism tested; biocide paired with Surf. E,1:0.2 or greater
O=[N+]([O-])C(CO)(CO)CO [TRIS NITRO],Synergy against any organism tested,any organism tested; biocide paired with Surf. A,no synergy
Oc1ccccc1-c1ccccc1 [OPP],Synergy against any organism tested,any organism tested; biocide paired with Surf. D,no synergy
CCCCNC(=O)OCC#CI [IPBC],ratio of surfactant to biocide where synergy was observed,any organism tested; biocide paired with Surf. A,1:0.2 or greater
same,ratio of surfactant to biocide where synergy was observed,any organism tested; biocide paired with Surf. D,synergistic only at 1:0.05 or worse
same,ratio of surfactant to biocide where synergy was observed,any organism tested; biocide paired with Surf. E,1:0.2 or greater
CCCCCCCCn1sccc1=O [OIT],ratio of surfactant to biocide where synergy was observed,any organism tested; biocide paired with Surf. D,1:0.2 or greater
same,ratio of surfactant to biocide where synergy was observed,any organism tested; biocide paired with Surf. E,1:0.2 or greater
O=C([O-])c1ccccc1.[Na+] [Sodium Benzoate],Synergy against any organism tested,any organism tested; biocide paired with Surf. A,no synergy
Cn1sc2ccccc2c1=O [MBIT],ratio of surfactant to biocide where synergy was observed,any organism tested; biocide paired with Surf. D,synergistic only at 1:0.05 or worse
"Cn1sccc1=O [MIT, 2-methyl-4-isothiazolin-3-one]",CB (MIC of compound B alone),"[1]; MIT alone, Surf. E series, 1/10 TSB, inoculum 1.808E+06 CFU/ml, 24 hrs",60 ppm
same,Cb (concentration of compound B in the mixture which produced an end point),"[1]; MIT in mixture with Surf. E, 1/10 TSB, 1.808E+06 CFU/ml, 24 hrs",50 ppm and 40 ppm and 30 ppm
same,MIC,"[1]; Staphylococcus aureus, ATCC6538, 24 h, read-out: CB (MIC of compound B alone)",60 µg/mL
same,MIC,"[2]; Candida albicans, ATCC10203, 48 h, read-out: CB (MIC of compound B alone)",200 µg/mL
same,CB (MIC of compound B alone),"[2]; Surf. D series, inoculum 5.726E+05 CFU/ml",200 ppm
same,CB (MIC of compound B alone),"[2]; Surf. E series, inoculum 1.808E+06",200 ppm
same,Cb (concentration of compound B in the mixture which produced an end point),"[2]; MIT in mixture with Surf. A, 1.156E+06 CFU/ml",100 ppm
same,Cb (concentration of compound B in the mixture which produced an end point),"[2]; MIT in mixture with Surf. D, 5.726E+05 CFU/ml",50 ppm and 60 ppm and 80 ppm and 100 ppm
same,MIC,[3]; Surf. A series,400 µg/mL
same,MIC,[3]; Surf. E series,300 µg/mL
same,Cb (concentration of compound B in the mixture which produced an end point),[3]; MIT in mixture with Surf. A,300 ppm
same,Cb (concentration of compound B in the mixture which produced an end point),[3]; MIT in mixture with Surf. E,200 ppm
same,Cb (concentration of compound B in the mixture which produced an end point),"[4]; MIT in mixture with Surf. A, 8.134E+07 CFU/ml",30 ppm
same,Cb (concentration of compound B in the mixture which produced an end point),"[4]; MIT in mixture with Surf. D, 1.16E+08",20 ppm
same,MIC,"[4]; read-out: CB (MIC of compound B alone), MIT alone, Surf. A series, 1/10 TSB, inoculum 8.134E+07 CFU/ml",40 µg/mL
same,MIC,"[4]; read-out: CB (MIC of compound B alone), MIT alone, Surf. D series, 1/10 TSB, inoculum 1.16E+08",30 µg/mL
